According to article PMC10214526, “Semisynthetic LC3 Probes for Autophagy Pathways Reveal a Noncanonical LC3 Interacting Region Motif Crucial for the Enzymatic Activity of Human ATG3” (ACS Central Science, 2023):

System: ATG3 C1
Assay: NaCl dependence of cross-linking of probe 2 with ATG3 C1
Assay type: biochemical, human
Details: probe 2 15 μM, ATG3 C1 15 μM, phosphate buffer, NaCl 0-500 mM, 37 °C, 30 min; n = 3
Method: Farnung et al. Supplementary Information […]
electrostatic representation of ATG3 LIR motif and GABARAP
Figure S13. Interaction of ATG3 and GABARAP is salt-dependent. a, ColabFold prediction of ATG3-GABARAP complex (in Fig. 1c) shown with its Coulombic potential. Only LIR motif of ATG3 shown for clarity.
LIRATG3 is mostly negatively charged and binds to a strongly positively charged surface on GABARAP. b, Binding of cyclized LIRATG3 peptide to GABARAP (0.2 μM) in the presence of varying amounts of NaCl. Binding was performed in triplicates and normalized to polarization for 0 mM NaCl. c, Modification of ATG3 C1 with 2 in the presence of increasing concentrations of NaCl (0 -500 mM). Coomassie Blue stained SDS-PAGE gel was analyzed by gel densitometry. d, Quantification of data shown in […]. […]
Figure S14. […] Lipidation was assessed by immunoblotting against LC3A/B. Lipidation was observed upon re-expression of ATG3 wt but not ATG3 C264A or ΔLIR. As a positive control wild-type HEK293T cells were starved and analyzed in parallel to ATG3 –/– cells. […]
SDS-PAGE (8-16%, Bio-Rad) and visualized by Coomassie staining. Gel bands were quantified by gel densitometry using ImageLab (Bio-Rad).
ATG3 C1 (15 μM) was mixed with GABARAP methyl fumarate 2 (15 μM) in PBS, and the reaction mixture was incubated at 37 °C for 30 min. […] Gel bands were quantified by gel densitometry using ImageLab […]

GABARAP(ΔG116)–NHNH methyl-fumarate [compound 2]
Effect of increasing NaCl on cross-linking with ATG3 C1: reduced
